Laboratory results as given in patent US20250179059A1 (The Regents of the University of California, priority 2021, published 2025).

Columns and labels:
[1] = target: T1, human BRD4 bromodomain II (Homo sapiens, UniProt O60885); assay: Bromodomain binding assay (AlphaScreen), BRD4 BDII; settings: AlphaScreen assay, Table C2; read-out: BRD4 BDII IC50
T1 construct: human BRD4 bromodomain II [based on Genbank NM_058243, residues 349-460]; host or cells: E. coli
Summary of the method: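 First, His6-tagged BRD4 bromodomain (BDI residues 44-170 or BDII residues 349-460) is incubated with compound for 30 min at room temperature. Next the biotinylated H4 peptide is added for 30 min, then donor and acceptor beads, with 60 min in the dark before AlphaScreen reading and IC50 fitting.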

[2] = test system: human SKM-1 acute myeloid leukemia cells; assay: SKM-1 antiproliferation cell-based assay (ATPlite); settings: Homo sapiens, SKM-1, 96 h, SKM-1 antiproliferation assay, 4 days, Table C2
Summary of the method: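 Log-phase cells in RPMI 1640/15% FBS were seeded at 34722 cells/mL and exposed for 4 days to nine-concentration DMSO serial dilutions in triplicate. Viability was read as ATP luminescence (ATPlite 1step), and IC50 values came from variable-slope non-linear regression.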

Row | IC50 [1] [µM] | GI50 [2] [µM] | SMILES
1 | 0.001 to 0.01 | 0.3 to 3 | CC1CCN(c2ccc(-c3cccc(-c4ccnc(N5CCNCC5)c4)c3O)cc2Cl)C1=O (centres unmarked) [Example 328, 1-(3-chloro-2′-hydroxy-3′-(2-(piperazin-1-yl)pyridin-4-yl)-[1,1′-biphenyl]-4-yl)-3-methylpyrrolidin-2-one]
2 | > 0.1 | 0.3 to 3 | CC1(C)CCN(c2ccc(-c3cccc(-c4ccnc(N5CCNCC5)c4)c3O)cc2Cl)C1=O [Example 329, 1-(3-chloro-2′-hydroxy-3′-(2-(piperazin-1-yl)pyridin-4-yl)-[1,1′-biphenyl]-4-yl)-3,3-dimethylpyrrolidin-2-one]
3 | 0.001 to 0.01 | 0.03 to 0.3 | CC(=O)Nc1ccc(-c2cccc(-c3ccc(N4CCN(C)C4=O)c(Cl)c3)c2O)cc1N1CCNCC1 [Example 330, N-(3″-chloro-2′-hydroxy-4″-(3-methyl-2-oxoimidazolidin-1-yl)-3-(piperazin-1-yl)-[1,1′:3′,1″-terphenyl]-4-yl)acetamide]
4 | 0.001 to 0.01 | 0.03 to 0.3 | CN1CCN(c2ccc(-c3cccc(-c4cc(C#N)cc(N5CCNCC5)c4)c3O)cc2Cl)C1=O [Example 331, 3″-chloro-2′-hydroxy-4″-(3-methyl-2-oxoimidazolidin-1-yl)-5-(piperazin-1-yl)-[1,1′:3′,1″-terphenyl]-3-carbonitrile]
5 | 0.01 to 0.1 | ≥ 3 | CN1CCN(c2ccc(-c3cc(C(F)(F)F)cc(-c4ccnc(N5CCNCC5)c4)c3O)cc2Cl)C1=O [Example 332, 1-(3-chloro-2′-hydroxy-3′-(2-(piperazin-1-yl)pyridin-4-yl)-5′-(trifluoromethyl)-[1,1′-biphenyl]-4-yl)-3-methylimidazolidin-2-one]
6 | 0.001 to 0.01 | 0.03 to 0.3 | CC(=O)Nc1ccc(-c2cccc(-c3cc(NCCO)nc(N4CCNCC4)c3)c2O)cc1F [Example 333, N-(3-fluoro-2′-hydroxy-3′-(2-((2-hydroxyethyl)amino)-6-(piperazin-1-yl)pyridin-4-yl)-[1,1′-biphenyl]-4-yl)acetamide]
7 | 0.01 to 0.1 | 0.3 to 3 | CN1CCN(c2ccc(-c3cccc(-c4cncc(N5CC6(CNC6)C5)c4)c3O)cc2F)C1=O [Example 334, 1-(3′-(5-(2,6-diazaspiro[3.3]heptan-2-yl)pyridin-3-yl)-3-fluoro-2′-hydroxy-[1,1′-biphenyl]-4-yl)-3-methylimidazolidin-2-one]
8 | 0.001 to 0.01 | 0.3 to 3 | CN1CCN(c2ccc(-c3cccc(-c4cncc(N5CC6(CNC6)C5)c4)c3O)cc2Cl)C1=O [Example 335, 1-(3′-(5-(2,6-diazaspiro[3.3]heptan-2-yl)pyridin-3-yl)-3-chloro-2′-hydroxy-[1,1′-biphenyl]-4-yl)-3-methylimidazolidin-2-one]
9 | 0.01 to 0.1 | 0.3 to 3 | CC(=O)Nc1ccc(-c2cccc(-c3ccc(C(F)(F)F)c(N4CCNCC4)c3)c2O)cc1F [Example 336, N-(3-fluoro-2′-hydroxy-3″-(piperazin-1-yl)-4″-(trifluoromethyl)-[1,1′:3′,1″-terphenyl]-4-yl)acetamide acetate]
10 | 0.001 to 0.01 | 0.03 to 0.3 | Cc1cc(-c2cc(C)nc(N3CCNCC3)c2)c(O)c(-c2ccc(N3CCN(C)C3=O)c(Cl)c2)c1 [Example 337, 1-(3-chloro-2′-hydroxy-5′-methyl-3′-(2-methyl-6-(piperazin-1-yl)pyridin-4-yl)-[1,1′-biphenyl]-4-yl)-3-methylimidazolidin-2-one]
11 | 0.001 to 0.01 | 0.03 to 0.3 | Cc1cc(-c2cccc(-c3ccc(N4CCN(C)C4=O)c(Cl)c3)c2O)cc(N2CCNCC2)n1 [Example 338, 1-(3-chloro-2′-hydroxy-3′-(2-methyl-6-(piperazin-1-yl)pyridin-4-yl)-[1,1′-biphenyl]-4-yl)-3-methylimidazolidin-2-one]
12 | 0.01 to 0.1 | 0.3 to 3 | COc1cc(-c2cccc(-c3ccc(NC(C)=O)c(F)c3)c2O)cc(N2CCNCC2)n1 [Example 339, N-(3-fluoro-2′-hydroxy-3′-(2-methoxy-6-(piperazin-1-yl)pyridin-4-yl)-[1,1′-biphenyl]-4-yl)acetamide]
13 | > 0.1 | 0.3 to 3 | CC1CC(=O)N(c2ccc(-c3cccc(-c4ccnc(N5CCNCC5)c4)c3O)cc2Cl)C1 (centres unmarked) [Example 340, 1-(3-chloro-2′-hydroxy-3′-(2-(piperazin-1-yl)pyridin-4-yl)-[1,1′-biphenyl]-4-yl)-4-methylpyrrolidin-2-one]
14 | 0.01 to 0.1 | 0.3 to 3 | O=C1N(c2ccc(-c3cccc(-c4ccnc(N5CCNCC5)c4)c3O)cc2Cl)CCC12CC2 [Example 341, 5-(3-chloro-2′-hydroxy-3′-(2-(piperazin-1-yl)pyridin-4-yl)-[1,1′-biphenyl]-4-yl)-5-azaspiro[2.4]heptan-4-one]
15 | 0.001 to 0.01 | 0.03 to 0.3 | CN1CCN(c2ccc(-c3cccc(-c4cc(N5CCNCC5)c(=O)n(C)c4)c3O)cc2Cl)C1=O [Example 342, 5-(3′-chloro-2-hydroxy-4′-(3-methyl-2-oxoimidazolidin-1-yl)-[1,1′-biphenyl]-3-yl)-1-methyl-3-(piperazin-1-yl)pyridin-2(1H)-one]
16 | 0.001 to 0.01 | 0.03 to 0.3 | CN1CCN(c2ccc(-c3cccc(-c4cnnc(N5CCNCC5)c4)c3O)cc2Cl)C1=O [Example 343, 1-(3-chloro-2′-hydroxy-3′-(6-(piperazin-1-yl)pyridazin-4-yl)-[1,1′-biphenyl]-4-yl)-3-methylimidazolidin-2-one]
17 | 0.01 to 0.1 | 0.03 to 0.3 | CN1CCN(c2ccc(-c3cccc(-c4cc(-c5ccccc5)nc(N5CCNCC5)c4)c3O)cc2Cl)C1=O [Example 344, 1-(3-chloro-2′-hydroxy-3′-(2-phenyl-6-(piperazin-1-yl)pyridin-4-yl)-[1,1′-biphenyl]-4-yl)-3-methylimidazolidin-2-one]
18 | > 0.1 | 0.3 to 3 | CCC1CCN(c2ccc(-c3cccc(-c4ccnc(N5CCNCC5)c4)c3O)cc2Cl)C1=O (centres unmarked) [Example 345, 1-(3-chloro-2′-hydroxy-3′-(2-(piperazin-1-yl)pyridin-4-yl)-[1,1′-biphenyl]-4-yl)-3-ethylpyrrolidin-2-one]
19 | > 0.1 | 0.3 to 3 | CCN1CCN(c2ccc(-c3cccc(-c4ccnc(N5CCNCC5)c4)c3O)cc2Cl)C1=O [Example 346, 1-(3-chloro-2′-hydroxy-3′-(2-(piperazin-1-yl)pyridin-4-yl)-[1,1′-biphenyl]-4-yl)-3-ethylimidazolidin-2-one]
20 | 0.01 to 0.1 | 0.3 to 3 | CN1CCN(c2ccc(-c3cc(F)cc(-c4ccnc(N(C)CCN)c4)c3O)cc2Cl)C1=O [Example 347, 1-(3′-(2-((2-aminoethyl)(methyl)amino)pyridin-4-yl)-3-chloro-5′-fluoro-2′-hydroxy-[1,1′-biphenyl]-4-yl)-3-methylimidazolidin-2-one]
21 | 0.001 to 0.01 | 0.03 to 0.3 | CC(=O)Nc1ccc(-c2cccc(-c3cc(N)nc(N4CCNCC4)c3)c2O)cc1F [Example 348, N-(3′-(2-amino-6-(piperazin-1-yl)pyridin-4-yl)-3-fluoro-2′-hydroxy-[1,1′-biphenyl]-4-yl)acetamide]
22 | 0.01 to 0.1 | 0.3 to 3 | CNC(=O)c1cc(-c2cccc(-c3ccc(NC(C)=O)c(F)c3)c2O)cc(N2CCNCC2)n1 [Example 349, 4-(4′-acetamido-3′-fluoro-2-hydroxy-[1,1′-biphenyl]-3-yl)-N-methyl-6-(piperazin-1-yl)picolinamide]
23 | 0.01 to 0.1 | 0.03 to 0.3 | CN1CCN(c2ccc(-c3cc(F)cc(-c4ccnc(N5CCC(N)CC5)c4)c3O)cc2Cl)C1=O [Example 350, 1-(3′-(2-(4-aminopiperidin-1-yl)pyridin-4-yl)-3-chloro-5′-fluoro-2′-hydroxy-[1,1′-biphenyl]-4-yl)-3-methylimidazolidin-2-one]
24 | 0.01 to 0.1 | 0.3 to 3 | CC(=O)Nc1ccc(-c2cccc(-c3cc(OC4CC4)nc(N4CCNCC4)c3)c2O)cc1F [Example 351, N-(3′-(2-cyclopropoxy-6-(piperazin-l-yl)pyridin-4-yl)-3-fluoro-2′-hydroxy-[1,1′-biphenyl]-4-yl)acetamide]
25 | 0.01 to 0.1 | 0.3 to 3 | CN1CCN(c2ccc(-c3cc(F)cc(-c4ccnc(N5CC6(CNC6)C5)c4)c3O)cc2Cl)C1=O [Example 352, 1-(3′-(2-(2,6-diazaspiro[3.3]heptan-2-yl)pyridin-4-yl)-3-chloro-5′-fluoro-2′-hydroxy-[1,1′-biphenyl]-4-yl)-3-methylimidazolidin-2-one]
26 | 0.001 to 0.01 | 0.03 to 0.3 | CN1CCN(c2ccc(-c3cc(F)cc(-c4ccnc(N5CC[C@H](N)C5)c4)c3O)cc2Cl)C1=O [Example 353, (S)-1-(3′-(2-(3-aminopyrrolidin-1-yl)pyridin-4-yl)-3-chloro-5′-fluoro-2′-hydroxy-[1,1′-biphenyl]-4-yl)-3-methylimidazolidin-2-one]
27 | > 0.1 | ≥ 3 | CN1CCN(c2ccc(-c3cc(F)cc(-c4ccnc(N5CCNC5=O)c4)c3O)cc2Cl)C1=O [Example 354, 1-(3-chloro-5′-fluoro-2′-hydroxy-3′-(2-(2-oxoimidazolidin-1-yl)pyridin-4-yl)-[1,1′-biphenyl]-4-yl)-3-methylimidazolidin-2-one]
28 | 0.001 to 0.01 | 0.03 to 0.3 | CN1CCN(c2ccc(-c3cccc(-c4cc(CO)cc(N5CCNCC5)c4)c3O)cc2Cl)C1=O [Example 355, 1-(3-chloro-2′-hydroxy-3″-(hydroxymethyl)-5″-(piperazin-1-yl)-[1,1′:3′,1″-terphenyl]-4-yl)-3-methylimidazolidin-2-one]
